Entries after “also recorded” stand apart in the source; their conditions may differ.
What was measured:
[1] = test system: Drosophila melanogaster under Paraquat-induced oxidative stress; assay: Survival of Drosophila melanogaster under Paraquat-induced oxidative stress; assay type: in vivo; settings: 10 mM Paraquat
Method: The effect of Agaricus Blazei without enrichment, with Vitamin D2 enrichment, pure Vitamin D2 and control (vehicle for the delivery) on the survival rate of Drosophila melanogaster under Paraquat-induced oxidative stress condition was tested. The study focused on the control of Paraquat induced oxidative stress/biologic death. Paraquat is a very potent oxidative stress inducing chemical and causes death in animals and plants by the toxicity of released free radicals. Paraquat (10 mM concentration) (Sigma Aldrich) was used to chemically induce oxidative stress. Paraquat is the trade name for N,N′-dimethyl-4,4′-bipyridinium dichloride, a widely used herbicide. Paraquat, a viologen, is quick-acting and non-selective, killing green plant tissue on contact. It is also toxic to humans when swallowed. This is the most standard chemical used in experimental induction of oxidative stress using the Drosophila model system. It catalyzes the formation of reactive oxygen species (ROS). Paraquat will undergo redox cycling in vivo, gets reduced by an electron donor such NADPH, before being oxidized by an electron receptor such as dioxygen to produce superoxide, a major ROS.
The following materials and methods were utilized. Vials containing 10 mM Paraquat (from Sigma Aldrich) in 5 ml of 1.2% Low melting point Agarose medium were prepared. A strip of half moist filter paper was inserted in the medium (with the wet end in). Yeast paste containing 1% concentration (w/w) of the various test materials (see above) mixed to homogeneity was prepared. Yeast paste without drug was used as control. Uniform aliquot (˜300 mg) of yeast paste with or without the test material) was applied to vials in such a way that yeast paste was on the glass surface and covered the dry end (top) of the filter paper strip. Freshly enclosed wild type isogenized Canton-S males and females were collected and starved on 1% agar medium for 5-6 hours. Four males and females were transferred to the vial containing 10 mM paraquat in LMP agarose medium and yeast paste with +/− test material (8 flies per vial). 6 vials were used per experiment. Vials with flies were placed horizontally in a tray. The experiment was conducted at 25 degrees C. temperature. Flies were transferred once in 2 days and the number of flies surviving at each transfer was recorded.

[2] = test system: Alzheimer's disease (AD) model in Drosophila; assay: Survival of Alzheimer's disease (AD) model flies (UAS-hAPP;408-GAL4); assay type: in vivo; settings: mushroom or turmeric powder 1% w/w, Vitamin D2/D3 0.75% w/w in yeast paste, 25 degrees C
Excerpt: Type of Model (with specific Drosophila model of neurodegeneration, with references). The targeted over/ectopic expression of APP in the brain using a UAS promoter driven APP transgene, induced by a specific GAL4 trans-driver in the brain of a Drosophila model system, was used for this Example. Below is a reference for such over-expression of APP in the Drosophila model system and the combination gives a fully penetrant AD with limited life-span.
β-Amyloid peptides and amyloid precursor protein (APP) play a deterministic role in Alzheimer's disease (AD). […]
We determined the extension of life span in the mutant strain for each test compound. […]
A series of experiments were run according to the methods earlier reported on Paraquat induced oxidative stress and Drosophila Alzheimer's disease flies. […] We determined the extension of life span in the mutant strain for each test compound as detailed below. […]
In the meantime, yeast paste containing required concentration of compound was prepared. […] Required quantity of both yeast and compound was weighed and finely ground in a pestle and mortar. The finely ground powder was transferred to a small beaker and appropriate quantity of water was added and mixed very well to make a homogeneous paste. […]

Row | SMILES | effect on survival under Paraquat-induced oxidative stress (words) [1] | effect on survival of AD flies [2] | survivability under Paraquat-induced oxidative stress condition ([1]; 1% w/w test material in yeast paste, period of 10 days, 25 degrees C) [%+/−3%] | effect on survival under Paraquat-induced oxidative stress (words) ([1]; listed as Vitamin D2)
1 | C=C1CC[C@H](O)C/C1=C/C=C1\CCC[C@]2(C)[C@@H]([C@H](C)CCCC(C)C)CC[C@@H]12 [Vitamin D3, cholecalciferol] | no beneficial effect; also recorded: no effect on survival |  |  | 
2 | C=C1CC[C@H](O)C/C1=C/C=C1\CCC[C@]2(C)[C@@H]([C@H](C)/C=C/[C@H](C)C(C)C)CC[C@@H]12 [pure Vitamin D2, ergocalciferol] | no effect on survival | no such effect | 13 | deleterious effect on the survival; also recorded: no beneficial effect

— patent US20120128711A1, “ANTI-INFLAMMATORY APPROACH TO PREVENTION AND SUPPRESSION OF POST-TRAUMATIC STRESS DISORDER, TRAUMATIC BRAIN INJURY, DEPRESSION AND ASSOCIATED DISEASE STATES” (TOTAL NUTRACEUTICAL SOLUTIONS, INC., priority 2009, published 2012)
